Data set [1] can be described thus: Leaching test of cured plaques in artificial saliva (Ringer solution), UV/Vis spectroscopy. The format is physicochemical. The procedure: These plaques were light-cured and stored in artificial saliva (Ringer solution) for 20 days at 37° C. By UV/Vis spectroscopy, no triclosan could be found in the artificial saliva.
Again, plaques were made from a mixture of the varnish components except for the solvent ethanol. These plaques were light-cured and stored in artificial saliva (Ringer solution) for 14 days at 37° C. By UV/Vis spectroscopy, some triclosan could be found in the artificial saliva.

In a further data set the test system is bacteria. Conditions: long-term experiments; cited from earlier work.

The values below come from patent US20010009931A1, “Protective varnish for dentin” (priority 1997, published 2001).

Turning to `Oc1cc(Cl)ccc1Oc1ccc(Cl)cc1Cl` [triclosan, 2,4,4′-trichloro-2′-hydroxydiphenyl ether], the “triclosan embedded in the plaque leached out” value in data set [1] (plaque with 6.25 wt % triclosan based on resin mixture, 20 days at 37° C.) is “less than 0.1 wt %”. Moreover, the “leaching of the overall triclosan content of the plaque” value in data set [1] (plaque with 40 wt % triclosan, 14 days at 37° C.) was 0.2 wt %. For the same molecule, the “development of bacterial resistance” value in the data set on bacteria is “no development of bacterial resistance”.
